Measured values as given in US9765063B2, “Amido compounds as RORγt modulators and uses thereof” (New York University, priority 2011, dated 2017).
Entries after “also recorded” stand apart in the source; their conditions may differ. Read-outs that look alike come from different tables or passages of the source.

Experiments:
RORγt [1] = experiment: RORγt overexpression dependent IL17a production in human CD4 T cells (FIG. 3); format: cell-based; conditions: FIG. 3, FACS, 0.5 μM; listed as NCGC00242624
Experimental: Briefly, CD3+ CD4+ CD45RA+ naive human T cells were isolated from peripheral blood derived from healthy donors. The naive T cells were cultured in XVIVO-20 (Lonza) medium for 7 days in the presence of IL2 and stimulatory CD3 and CD28 antibodies. Cells were infected with lentivirus encoding human RORα or RORγ and compound or DMSO was added on day 2. FACS plot analysis is shown after gating on GFP expressing (virus infected) cells.

RORγt [2] = target: T1, RORγt (Mus musculus, UniProt P51450); experiment: RORγt S2 cell reporter assay (Gal4-RORγt fusion, UAS-luciferase); format: cell-based
T1 construct: expressed in transfected cells; the other entry of the earlier key: GAL4 (P04386, Regulatory protein GAL4)
Outline: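 Drosophila S2 cells stably carrying Gal4DBD-RORγt under a copper-inducible metallothionein promoter plus a UAS-firefly luciferase reporter were preincubated 1 h with compound, then induced with 0.7 mM copper sulfate for 20 h at ambient temperature. Luminescence read after 10 min; efficacy given as % of maximal response of control inhibitor Digoxin (100%).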

T1 sequence (P51450 with tags, fused parts or gaps): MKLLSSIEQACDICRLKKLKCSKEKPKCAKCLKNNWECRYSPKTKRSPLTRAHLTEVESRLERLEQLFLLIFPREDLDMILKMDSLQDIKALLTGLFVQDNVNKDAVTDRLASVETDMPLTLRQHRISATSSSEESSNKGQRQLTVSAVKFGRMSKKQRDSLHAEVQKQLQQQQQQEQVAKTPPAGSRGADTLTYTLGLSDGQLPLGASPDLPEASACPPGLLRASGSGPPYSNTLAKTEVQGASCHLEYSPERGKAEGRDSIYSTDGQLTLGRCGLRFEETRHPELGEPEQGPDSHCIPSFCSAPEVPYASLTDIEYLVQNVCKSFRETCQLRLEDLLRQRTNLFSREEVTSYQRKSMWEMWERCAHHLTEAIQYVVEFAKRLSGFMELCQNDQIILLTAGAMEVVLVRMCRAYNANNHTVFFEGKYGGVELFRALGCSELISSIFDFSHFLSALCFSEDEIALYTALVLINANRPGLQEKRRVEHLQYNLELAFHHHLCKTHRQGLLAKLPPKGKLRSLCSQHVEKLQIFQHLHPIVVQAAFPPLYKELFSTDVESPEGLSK

For `COc1cc(O)c(C(CC(=O)N2CC(C)CC(C)C2)c2ccc(C(=O)O)cc2)c(OC)c1` (stereo not drawn) [Compound 99, 4-(3-(3,5-Dimethylpiperidin-1-yl)-1-(2-hydroxy-4,6-dimethoxyphenyl)-3-oxopropyl)benzoic acid], the “RORγt overexpression dependent IL17a production in human CD4 T cells” value (RORγt [1]) was “selectively inhibit RORγt dependent; also recorded: selectively inhibits RORγt overexpression dependent IL17a production”, the IC50 (RORγt [2]; Table 1, Drosophila S2 cells, luciferase reporter, read-out: IC50) was 1000 to 10000 nM and the IC50 (RORγt [2]; Table 2, from the S2 cell reporter assay, listed for comparison, read-out: S2 cell RORg IC50) was under 1000 nM.
